# Reference: patent US7709513B2, “Benzooxazol-2-one derivatives as lipase and phospholipase inhibitors” (Sanofi-Aventis, priority 2005, dated 2010)
# Biological target: T1, endothelial lipase (EL) (Homo sapiens, UniProt Q9Y5X9)
# T1 construct: made in house; host or cells: recombinant cell lines (CHO, HEK293); concentrated conditioned medium used as enzyme solution
# T1 sequence (Q9Y5X9 21-500): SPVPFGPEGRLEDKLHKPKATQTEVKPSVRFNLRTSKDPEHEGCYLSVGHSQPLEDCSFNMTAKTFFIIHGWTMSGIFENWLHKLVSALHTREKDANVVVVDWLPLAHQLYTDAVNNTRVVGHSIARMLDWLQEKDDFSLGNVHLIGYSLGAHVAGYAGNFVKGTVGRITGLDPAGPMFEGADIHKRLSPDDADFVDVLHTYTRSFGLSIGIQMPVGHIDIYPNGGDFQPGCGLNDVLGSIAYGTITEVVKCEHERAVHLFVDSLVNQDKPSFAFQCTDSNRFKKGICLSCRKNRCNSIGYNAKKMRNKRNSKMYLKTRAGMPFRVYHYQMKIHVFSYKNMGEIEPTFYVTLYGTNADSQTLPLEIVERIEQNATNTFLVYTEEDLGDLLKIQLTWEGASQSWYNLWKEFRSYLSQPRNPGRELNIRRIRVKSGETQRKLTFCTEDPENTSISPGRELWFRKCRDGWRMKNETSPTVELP
# Assay: Further EL inhibition assay
# Assay type: biochemical
# Details: Bodipy-labelled phospholipid substrate, 37° C., 90 minutes, HPTLC fluorescence readout; EL from conditioned medium of recombinant cell lines (CHO, HEK293)
# Text: EL is released as secretory protein in high concentration into cell culture medium (conditioned medium) by recombinant cell lines (CHO, HEK293). This is employed as enzyme solution after concentration.
# The phospholipase-specific substrate 1,2-bis(4,4-difluoro-5,7-dimethyl-4-bora-3a,4a-diaza-s-indacene-3-undecanoyl)-sn-glycero-3-phosphocholine, (manufacturer Molecular Probes) is used to characterize the enzymatic activity of endothelial lipase and the effect of inhibitors. Hydrolysis of the A1 ester linkage of this phospholipid by the enzyme liberates the fluorescent dye Bodipy which can be detected after separation by thin-layer chromatography on an HPTLC plate (silica gel 60, Merck) or directly in the reaction vessel by measuring the fluorescence.
# The substrate solution is prepared by dissolving 100 μg of 1,2-bis(4,4-difluoro-5,7-dimethyl-4-bora-3a,4a-diaza-s-indacene-3-undecanoyl)-sn-glycero-3-phospho-choline (manufacturer Molecular Probes) in 100 μl of DMSO and taking up in 2.4 mg of tripalmitin (Sigma) in 393 μl of chloroform which comprises 20 mg/ml DOP-choline (1,2-dioleoyl-sn-glycero-3-phosphocholine). 39.3 μl of this lipid mixture are transferred into a fresh reaction vessel, and the solvent is evaporated off. The lipid mixture is dissolved in 4 ml of 200 mM TRIS-HCl, 150 mM sodium chloride, pH=7.4, by sonication twice. The subsequent enzymic reaction takes place at 37° C. for 90 minutes. For this purpose, 20 μl of the substrate solution are incubated with 2 μl of inhibitor of appropriate concentration (dissolved in 10% DMSO, using 10% strength DMSO solution for control) and 2 μl of enzyme solution (conditioned medium). The 4 μl of the assay mixture are loaded onto an HPTLC plate (silica gel 60, Merck), and the liberated fluorescent dye is separated for detection with an eluent (diethyl ether:petroleum benzine:acetic acid [78:22:1]). After evaporation of the eluent, the plate is read in a fluorescence scanner. An increased liberation of the fluorescent dye in the uninhibited reaction is to be observed as a measure of the enzymic activity.
row,IC50 [µM],SMILES
1,0.06,"CCCCCCNC(=O)n1c(=O)oc2cc(C(C)=O)ccc21 [Example 3, 6-Acetyl-2-oxobenzooxazole-3-hexylcarboxamide]"
2,0.95,"Cc1ccccc1CNC(=O)n1c(=O)oc2ccccc21 [Example 5, 2-Oxobenzooxazole-3-(2-methylbenzyl)carboxamide]"
3,0.23,"O=C(NCc1ccccc1)n1c(=O)oc2ccc(Cl)cc21 [Example 7, 5-Chloro-2-oxobenzooxazole-3-benzylcarboxamide]"

# More lines, now with the values behind:
row,SMILES,IC50 [µM]
1,"CC(=O)c1ccc2c(c1)oc(=O)n2C(=O)NCc1ccccc1 [Example 1, 6-Acetyl-2-oxobenzooxazole-3-benzylcarboxamide]",0.13
2,"CC(=O)c1ccc2c(c1)oc(=O)n2C(=O)NCc1ccccc1C [Example 2, 6-Acetyl-2-oxobenzooxazole-3-(2-methylbenzyl)carboxamide]",0.51
